Experimental data taken from patent US5952390A, “10-substituted 1,8-dihydroxy-9(10H) anthracenone pharmaceuticals” (Teva Pharmaceutical Industries Ltd., priority 1998, dated 1999).

Assay: Lipid peroxidation in bovine brain phospholipid liposomes
Settings: Table I (Addendum); n = 3 or more; standard errors average 20%; read-out: LPO IC50
Description: Phospholipids were prepared essentially as described by Gutteridge, J. M. C., "The Measurement of Malondialdehyde in Peroxidised Ox-Brain Phospholipid Liposomes", Anal. Biochem., 82, 76-82 (1977). Bovine brain, cooled on ice, was freed from blood vessels and washed repeatedly with 0.15M NaCl, pH 7.4. It was cut to pieces and then macerated with an ultra-turrax, passed through a close-meshed sieve, and extracted four times with four times the volume of acetone. The extraction mixture was filtered by suction to remove the acetone, the residue was dried under vacuum, and then repeatedly extracted with petroleum ether (40-60) using twice the volume of the original brain homogenate. The combined extracts were filtered, dried at 45° C., and dissolved in ether (one fifth of the original brain volume). The mixture was treated with five times the volume of acetone, and the resulting precipitate was collected by suction-filtration, dried and stored under N2 at -20° C. in the dark. Bovine brain phospholipids were weighed into glass tubes and shaken in a vortex mixer (Heidolph) in the presence of five small glass beads (.phi. 4 mm) for 1 min. […]
The following reagents were added to glass tubes in the order and at the final concentrations stated. […] The organic layer was separated by centrifugation at 3000 rpm (15 min) and the absorbance at 532 nm was measured against butanol.

IC50: 4 µM
Compound: CCCC(=O)C1c2cccc(O)c2C(=O)c2c(O)cccc21 [Butantrone, 10-Butyryl-Dithranol]
